According to patent publication US20080138317A1, “Use of biocompatible amphiphilic polymers as an anti-inflammatory agent” (priority 2004, published 2008):

Test system: TNF-α release from monocytes
Format: cell-based
Conditions: supernatant of human monocytes after overnight incubation; okadaic acid (OA) 50 nM; troglitazone 30 μm; MGSA polymers 50%; ELISA
Procedure: Human monocytes were isolated from freshly collected buffy coat preparations of whole human blood. Briefly, whole blood was diluted 1:1.33 with sterile phosphate buffered solution (PBS) and layered over Histopaque, which was then centrifuged for 30 minutes at 1500 rpm at room temperature. The interface was harvested and washed with PBS, followed by another centrifugation at 1500 rpm for 10 minutes. A final wash was performed in RPMI 1640 with 10% fetal bovine serum (FBS). Cells were counted using a hemacytometer and seeded at 2.4×10^6 cells/300 μl into a 48-well tissue culture treated plate. Cells were incubated for 1 hour at 37° C., 5% CO2 and non-adherent cells were removed with a PBS wash. 300 μl of RPMI 1640 with 10% FBS was added back to the cells along with the various test conditions; cells in media alone, with DMSO (the vehicle used to reconstitue okadaic acid and troglitazone), with okadaic acid (OA, 50 nM), with OA and troglitazone (30 μm), with OA and monostearyl glyceride succinic anhydride (MGSA)-liquid (3305-15, 50%), and with OA and MGSA-solid (2804-60, 50%). The supernatants were collected after overnight incubation at 37° C., 5% CO2 and later analyzed for TNF-α by ELISA.

Row | Compound | TNF-α
1 | C=C1[C@@H](O)[C@@H]2O[C@]3(CC[C@H](/C=C/[C@@H](C)[C@@H]4CC(C)=C[C@@]5(O[C@H](C[C@@](C)(O)C(=O)O)CC[C@H]5O)O4)O3)CC[C@H]2O[C@@H]1[C@@H](O)C[C@H](C)[C@H]1O[C@@]2(CCCCO2)CC[C@H]1C [Okadaic Acid, okadaic acid] | 575.765 ng/mL
2 | Cc1c(C)c2c(c(C)c1O)CCC(C)(COc1ccc(CC3SC(=O)NC3=O)cc1)O2 (centres unmarked) [Troglitazone] | 422.554 ng/mL
